The results in this text go back to PubChem BioAssay (NCI).

Among the test systems are SK-OV-3 ovarian; NCI-H23 lung; KM12 colon; HT29 colon; ACHN renal; HCC-2998 colon; MOLT-4 leukemia; SF-539 CNS; HS 578T breast; HOP-92 NSCLC.
What all share (assay): NCI tumour cell line growth inhibition, 48 h

The structures appear in SMILES notation. Where “and” joins values, the source holds several entries; their conditions need not be identical. Equal entries are not always repeated.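 In this assay, cells in 96-well plates receive the compound at five concentrations for 48 hours. Endpoints are linearly interpolated between the surrounding concentrations. The concentration for 50% growth inhibition is given as GI50. TGI: concentration producing complete growth inhibition.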

Take `COc1ccc(Nc2ccnc(NCCCNc3ccnc4cc(Cl)ccc34)n2)cc1`: the GI50 is 1.68 µM in the assay with SK-OV-3 ovarian; 2.43 µM in the assay on NCI-H23 lung; 1.67 µM in the assay with KM12 colon; 0.393 µM in the assay on HT29 colon; 1.18 µM in the assay on ACHN renal; 1.01 µM in the assay with HCC-2998 colon. Besides, the GI50 in the assay with MOLT-4 leukemia is 1.45 µM; with SF-539 CNS, 0.169 µM; with HS 578T breast, 1.46 µM; in the assay on HOP-92 NSCLC it was 0.632 µM. Besides, the TGI in the assay with SK-OV-3 ovarian turned out to be 3.18 µM; in the assay with NCI-H23 lung, 8.5 µM; with KM12 colon, 3.73 µM; in the assay with HT29 colon, 2.2 µM; in the assay on ACHN renal, 2.42 µM; with HCC-2998 colon, 2.61 µM. Also, the TGI with MOLT-4 leukemia worked out at 7.22 µM; in the assay with SF-539 CNS, 0.352 µM; in the assay with HS 578T breast it was 3.83 µM; in the assay with HOP-92 NSCLC, 2.65 µM.
As for `O=C(O)c1cccc(CC(Br)C(=O)O)c1` (centres undefined), the TGI with SK-OV-3 ovarian, in the assay on NCI-H23 lung, with KM12 colon, with HT29 colon, with ACHN renal and in the assay on HCC-2998 colon was above 100 µM each time. Further, the TGI with MOLT-4 leukemia, in the assay on SF-539 CNS, with HS 578T breast and in the assay with HOP-92 NSCLC was above 100 µM in each case.
Take `O=C(O)CCC1CCC(c2cc(F)ccc2F)(S(=O)(=O)c2ccc(Cl)cc2)CC1` (centres undefined): the GI50 in the assay with SK-OV-3 ovarian is 32.1 µM and > 100 µM; in the assay with NCI-H23 lung it was 23.4 µM and > 100 µM; in the assay with KM12 colon, 34.3 µM and 85.5 µM; in the assay on HT29 colon, 30.3 µM and > 100 µM; with ACHN renal, 56.7 µM and > 100 µM; in the assay on HCC-2998 colon it was 38 µM and > 75.4 µM. Also, the GI50 was 41.2 µM and > 59.7 µM with MOLT-4 leukemia; 29.4 µM and > 100 µM with SF-539 CNS; 17.8 µM and 49.3 µM in the assay with HS 578T breast. Further, the TGI with SK-OV-3 ovarian, in the assay on NCI-H23 lung, in the assay on KM12 colon, in the assay on HT29 colon, in the assay on ACHN renal and with HCC-2998 colon was above 100 µM in each case. Also, the TGI is above 100 µM in the assay with MOLT-4 leukemia; above 100 µM with SF-539 CNS; 55.4 µM and > 100 µM in the assay with HS 578T breast; 95.1 µM and > 100 µM with HOP-92 NSCLC.
For `O=C1/C(=C/C(Cl)=C/c2ccccc2)SC(=S)N1CCc1ccc(O)cc1`, the GI50 was 5.53 µM in the assay with SK-OV-3 ovarian; 2.42 µM in the assay on NCI-H23 lung; 1.49 µM in the assay on KM12 colon; 2.11 µM in the assay on HT29 colon; 1.67 µM with ACHN renal; 1.91 µM in the assay with HCC-2998 colon. The GI50 was 2.2 µM in the assay on MOLT-4 leukemia, 1.72 µM in the assay with SF-539 CNS, 3.24 µM with HS 578T breast and 3.18 µM with HOP-92 NSCLC. Besides, the TGI in the assay with SK-OV-3 ovarian is above 100 µM; in the assay on NCI-H23 lung it was 7.85 µM; with KM12 colon, 3.03 µM; in the assay with HT29 colon, 5.57 µM; in the assay on ACHN renal, 3.6 µM; in the assay on HCC-2998 colon it was 3.72 µM. In addition, the TGI is above 100 µM in the assay on MOLT-4 leukemia, 3.52 µM in the assay with SF-539 CNS, above 100 µM in the assay on HS 578T breast and 21.6 µM in the assay on HOP-92 NSCLC.
As to `[N-]=[N+]=CC(=O)OCC(N)C(=O)O` (centres undefined), the GI50 with SK-OV-3 ovarian is 0.808 µM; with NCI-H23 lung, 1.85 µM; with KM12 colon, 0.58 µM; in the assay with HT29 colon it was 0.277 µM; with ACHN renal, 1.7 µM; in the assay with HCC-2998 colon, 0.556 µM. For the same molecule, the GI50 was 0.638 µM in the assay on MOLT-4 leukemia, 0.64 µM with SF-539 CNS, above 100 µM with HS 578T breast and above 100 µM in the assay with HOP-92 NSCLC. In addition, the TGI with SK-OV-3 ovarian, with NCI-H23 lung, in the assay with KM12 colon, with HT29 colon, in the assay with ACHN renal and with HCC-2998 colon was above 100 µM throughout. Also, the TGI in the assay with MOLT-4 leukemia, in the assay with SF-539 CNS, in the assay on HS 578T breast and with HOP-92 NSCLC was above 100 µM in each case.
On to `Cn1cnc2c(NCc3ccccc3)nc(NCCO)nc21`, for which the GI50 was 241 µM in the assay with SK-OV-3 ovarian; 110 µM in the assay on NCI-H23 lung; 62.1 µM in the assay with KM12 colon; 83.6 µM in the assay on HT29 colon; 92.7 µM in the assay with ACHN renal; 115 µM in the assay on HCC-2998 colon. Besides, the GI50 is 103 µM in the assay with MOLT-4 leukemia, 36.7 µM in the assay on SF-539 CNS, 162 µM with HS 578T breast and 138 µM with HOP-92 NSCLC. Further, the TGI was above 460 µM with SK-OV-3 ovarian; 382 µM with NCI-H23 lung; 344 µM with KM12 colon; 336 µM in the assay on HT29 colon; above 468 µM with ACHN renal; 356 µM in the assay on HCC-2998 colon. Besides, the TGI is 356 µM in the assay on MOLT-4 leukemia; > 90 µM and 92.7 µM in the assay on SF-539 CNS; 465 µM with HS 578T breast; > 90.2 µM and 375 µM with HOP-92 NSCLC.
As for `O=C(Nc1ccc(Br)c(Cl)c1)c1cc(F)ccc1O`, the GI50 was 0.633 µM with SK-OV-3 ovarian; 0.36 µM with NCI-H23 lung; 1.36 µM in the assay with KM12 colon; 1.71 µM in the assay with HT29 colon; 0.61 µM with ACHN renal; 1.63 µM with HCC-2998 colon. Moreover, the GI50 in the assay on MOLT-4 leukemia was 0.943 µM; in the assay on SF-539 CNS, 0.771 µM; in the assay on HS 578T breast it was 0.719 µM; with HOP-92 NSCLC, 0.121 µM. Moreover, the TGI in the assay on SK-OV-3 ovarian is 3.79 µM; in the assay with NCI-H23 lung, 3.17 µM; with KM12 colon, 5.23 µM; with HT29 colon, 8.35 µM; in the assay on ACHN renal it was above 14.4 µM; in the assay on HCC-2998 colon, above 22 µM. The TGI with MOLT-4 leukemia is 2.81 µM; with SF-539 CNS it was 6.32 µM; with HS 578T breast, above 15.5 µM; in the assay with HOP-92 NSCLC, 0.755 µM.
For the molecule `O=C(O)CC1(C(=O)O)CCCCC1`, the TGI in the assay with SK-OV-3 ovarian, in the assay on NCI-H23 lung, with KM12 colon, with HT29 colon, in the assay with ACHN renal and in the assay with HCC-2998 colon was above 100 µM each time. Moreover, the TGI in the assay with MOLT-4 leukemia, in the assay on SF-539 CNS, in the assay with HS 578T breast and in the assay with HOP-92 NSCLC was above 100 µM each time.
